Columns and labels:
Assay in all cases: relative viability (nuclei count vs DMSO), 5 days (fraction); higher = more cells survive
[1] = test system: NCI-H358; conditions: first compound 0.02 µM
Outline: (§1)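 Relative viability equals treated-well nuclei counts divided by vehicle-well nuclei counts. Counts came from 4× images of lung cancer cell lines grown in 1536-well plates for 5 days after pin-tool dosing on the day after seeding. Dosing used one drug alone or a fixed anchor-drug dose plus five library-drug doses (not always all listed) in √10 steps, and values are medians of duplicate plates.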

[2] = test system: HCC-15
Outline: as §1

[3] = test system: NCI-H3122
Outline: as §1

[4] = test system: LXF-289
Outline: as §1

[5] = test system: CAL-12T
Outline: as §1

[6] = test system: NCI-H1975
Outline: as §1

[7] = test system: NCI-H2126
Outline: as §1

[8] = test system: NCI-H2023
Outline: as §1

[9] = test system: NCI-H1755
Outline: as §1

[10] = test system: EMC-BAC-2
Outline: as §1

[11] = test system: NCI-H441
Outline: as §1

## CC(=O)O[C@@]12CO[C@@H]1C[C@H](O)[C@@]1(C)C(=O)[C@H](O)C3=C(C)[C@@H](OC(=O)[C@H](O)[C@@H](NC(=O)OC(C)(C)C)c4ccccc4)C[C@@](O)([C@@H](OC(=O)c4ccccc4)[C@H]21)C3(C)C [Docetaxel] + C[C@]1(O)C[C@@H](c2nc(-c3ccc4ccc(-c5ccccc5)nc4c3)c3c(N)nccn32)C1 [Linsitinib] (partner 1 µM)
[1]
  relative viability: 0.136
[2]; first compound 0.0002 µM
  relative viability: 0.765
[2]; first compound 0.000632 µM
  relative viability: 0.479
[2]; first compound 0.002 µM
  relative viability: 0.227
[2]; first compound 0.006325 µM
  relative viability: 0.244
[2]; first compound 0.02 µM
  relative viability: 0.162
[3]; first compound 0.0002 µM
  relative viability: 1
[3]; first compound 0.000632 µM
  relative viability: 1
[3]; first compound 0.002 µM
  relative viability: 0.79
[3]; first compound 0.006325 µM
  relative viability: 0.349
[3]; first compound 0.02 µM
  relative viability: 0.218
[4]; first compound 0.0002 µM
  relative viability: 0.989
[4]; first compound 0.000632 µM
  relative viability: 0.745
[4]; first compound 0.002 µM
  relative viability: 0.628
[4]; first compound 0.006325 µM
  relative viability: 0.144
[4]; first compound 0.02 µM
  relative viability: 0.106
[5]; first compound 0.0002 µM
  relative viability: 0.725
[5]; first compound 0.000632 µM
  relative viability: 0.694
[5]; first compound 0.002 µM
  relative viability: 0.303
[5]; first compound 0.006325 µM
  relative viability: 0.184
[5]; first compound 0.02 µM
  relative viability: 0.14
[6]; first compound 0.0002 µM
  relative viability: 0.861
[6]; first compound 0.000632 µM
  relative viability: 0.962
[6]; first compound 0.002 µM
  relative viability: 0.309
[6]; first compound 0.006325 µM
  relative viability: 0.189
[6]; first compound 0.02 µM
  relative viability: 0.161
[7]; first compound 0.0002 µM
  relative viability: 0.747
[7]; first compound 0.000632 µM
  relative viability: 0.683
[7]; first compound 0.002 µM
  relative viability: 0.631
[7]; first compound 0.006325 µM
  relative viability: 0.402
[7]; first compound 0.02 µM
  relative viability: 0.291
[8]; first compound 0.0002 µM
  relative viability: 0.703
[8]; first compound 0.000632 µM
  relative viability: 0.72
[8]; first compound 0.002 µM
  relative viability: 0.144
[8]; first compound 0.006325 µM
  relative viability: 0.159
[8]; first compound 0.02 µM
  relative viability: 0.0739
[9]; first compound 0.0002 µM
  relative viability: 0.948
[9]; first compound 0.000632 µM
  relative viability: 0.971
[9]; first compound 0.002 µM
  relative viability: 0.48
[9]; first compound 0.006325 µM
  relative viability: 0.384
[9]; first compound 0.02 µM
  relative viability: 0.302
[10]; first compound 0.0002 µM
  relative viability: 0.799
[10]; first compound 0.000632 µM
  relative viability: 0.665
[10]; first compound 0.002 µM
  relative viability: 0.463
[10]; first compound 0.006325 µM
  relative viability: 0.31
[10]; first compound 0.02 µM
  relative viability: 0.207
[11]; first compound 0.0002 µM
  relative viability: 0.405
[11]; first compound 0.000632 µM
  relative viability: 0.27
[11]; first compound 0.002 µM
  relative viability: 0.172
[11]; first compound 0.006325 µM
  relative viability: 0.224
[11]; first compound 0.02 µM
  relative viability: 0.117

Reference: the supplement of paper PMC10307832
